Measurements as given in patent publication US5376681A, “Aminocoumaran derivatives, their production and use” (Takeda Chemical Industries, Ltd., priority 1990, dated 1994).

System: behavior induced by spinal intrathecal injection of FeCl2 in mice
Assay: Effect of drugs on the change of the behavior induced by spinal intrathecal injection of FeCl2 in mice (Experiment 1)
Type: in vivo, mice (male Slc: ICR)
Details: oral, 30 minutes prior to ferrous chloride injection; for % inhibition: 100 mg/kg, calculated from mean scores vs saline; for Mean Score Administration of Test Compound of 100 mg/kg: behavioral score 0 (normal) to 5 (death), 10 mice per group
Experimental: Effect of drugs on the change of the behavior induced by spinal intrathecal injection of FeCl2 in mice
Male Slc: ICR mice (5 weeks) (10 mice per group) were used. Saline (5 μl/mouse) containing 50 mM FeCl2 was injected into the subarachnoid space between the 6th lumbar segment and the 1st sacral and scored as follows.
Percent inhibitions were calculated based on the scores evaluated above. The test compounds were orally administered 30 minutes prior no ferrous chloride injection. […]

Compound	% inhibition	Mean Score Administration of Test Compound of 100 mg/kg
Cc1c(C)c2c(c(C)c1N)CC(C)(CCc1ccccc1)O2 (stereo not shown) [Example 84, 5-Amino-2,4,6,7-tetramethyl-2-(2-phenylethyl)-2,3-dihydrobenzofuran]	89.1%	0.5
Cc1c(C)c2c(c(C)c1N)CC(C)(Cc1ccccc1)O2 (stereo not shown) [Example 1, 5-Amino-2-benzyl-2,4,6,7-tetramethyl-2,3-dihydrobenzofuran]	73.9%	1.2
Cc1c(C)c2c(c(C)c1N)CC(C)(C)O2 [Example 103, 5-Amino-2,2,4,6,7-pentamethyl-2,3-dihydrobenzofuran]	98.0%	0.1
Cc1c(C)c2c(c(C)c1N)CC(C)(CCc1ccc(F)cc1)O2 (stereo not shown) [Example 85, 5-Amino-2,4,6,7-tetramethyl-2-[2-(4-fluorophenyl)ethyl]-2,3-dihydrobenzofuran]	87.0%	0.6
CCNc1c(C)c(C)c2c(c1C)CC(C)(CCc1ccc(F)cc1)O2 (stereo not shown) [Example 47, 5-Ethylamino-2-[2-(4-fluorophenyl)ethyl]-2,4,6,7-tetramethyl-2,3-dihydrobenzofuran]	79.6%	1.0
